Measured values published in US11931347B2, “Method of screening for agents for differentiating stem cells” (MINERVA BIOTECHNOLOGIES CORPORATION, priority 2015, dated 2024).

What was measured:
T47D breast cancer cells = assay: cancer cell proliferation assay (Calcein live cell stain); format: cell-based, human; conditions: live cell Calcein stain, 96 hours (FIG. 113)
[1] = tested on: SK-OV-3 MUC1* positive ovarian cancer cells; assay: cancer cell proliferation assay (Calcein); format: cell-based; conditions: 96 hours (FIG. 112)
Description: Small molecule inhibition of cancer cell proliferation studies were also performed on several cancer sub-types. […] The small molecules of the invention had the most robust effect on T47D breast cancer cells, which are highly positive for MUC1* growth factor receptor, and its activating ligands NME7AB and NME7-X1. […] For the cancer cell proliferation experiment cancer cells were plated at constant densities (6000 cells/well) into a 96-well White-walled/Clear-bottom Tissue Culture Treated plate (Corning Incorporated, Big Flats, N.Y.). Small molecule analogs are added at T=24 hours in media with 2% FBS. […] […] Calcein fluorescence (final concentration 0.5 uM) is used to assess cell viability. Cancer cell fluorescence is measured in a TECAN SAFIRE^2 spectrophotometer plate reader. The plate is then imaged using an Olympus IX71 fluorescence imaging microscope and montage of the resulting images are assembled using ImageJ.

SMILES: Cc1sc2c(c1C)C(c1ccc(Cl)cc1)=N[C@@H](CC(=O)OC(C)(C)C)c1nnc(C)n1-2 [JQ1+, JQ1]
- inhibition of growth of T47D cells (T47D breast cancer cells): inhibited growth
- effect on growth of SK-OV-3 cells [1]: slight effect
